# Test results as given in patent publication US20120077744A1, “STEROID-SPARING METHODS OF TREATING BRAIN EDEMA” (Neutron Limited, priority 2007, published 2012).
# Assays:
# [1] = tested on: patients with primary or secondary brain tumors (peritumoral brain edema); details: interim report (SNO 2006); 8 of 18 subjects with such conditions at baseline; cited from earlier work
# [2] = tested on: patients with primary or secondary brain tumors (peritumoral brain edema); experiment: Open-label extension study: improvement of steroid-related conditions; type: in vivo, human
# Protocol: In these 8 patients, the mean NCD was −9.8 mg/d; the median NCD was −6.5 mg/d (0 to −36 mg/d).
# Mean baseline dexamethasone dose was similar in patients with reduced NCD (6.2 mg) and those with increased NCD (6.3 mg). Improvement or resolution of baseline steroid-related conditions correlated with NCD. Such improvement was observed only in patients whose NCD was reduced or those who took no dexamethasone from baseline to date extraction, as shown in FIG. 3. FIG. 3 is flow chart depicting the net cumulative change in dexamethasone dose and steroid-related adverse events. In contrast, worsening or new onset of steroid-related AEs was confined to patients whose NCD was increased, with one exception—a patient who initiated dexamethasone ≦2 weeks prior to baseline. Improvement was most frequently observed in Cushingoid appearance (5 AEs) myopathy (4 AEs), and insomnia (2 AEs) followed by weight gain, bloating, pedal edema, polyuria, skin striae, and Herpes zoster rash (1 AE each). Median time to initial improvement of steroid-related conditions was 12 weeks (1 to 36 weeks).
# [3] = tested on: patients with primary or secondary brain tumors (peritumoral brain edema); experiment: Open-label extension study: dexamethasone dose reduction (net cumulative change in dexamethasone dose, NCD); type: in vivo, human
# Description: Eligible patients with primary or secondary brain tumors, who had previously participated in one of two randomized, double-blind Phase III trials, were then enrolled in an open-label extension study. […] One of the goals of the open label study was to study the maximum dexamethasone reduction in each patient.
# [4] = tested on: patients with primary or secondary brain tumors (peritumoral brain edema); details: interim report (SNO 2006); 20 subjects on corticorelin acetate for at least 4 weeks; cited from earlier work
# [5] = Open-label extension study: serial serum cortisol levels; type: in vivo, human; details: for AM serum cortisol, one patient: reference range 5-25 μg/dL
# Protocol: Serial serum cortisol levels were obtained for 16 patients, and were normal or low in 15 (94%) of the 16 patients. In one patient, AM serum cortisol (reference range 5-25 μg/dL) was low on a dexamethasone dose of 2.5 mg/d, moderately elevated (39 μg/dL) after discontinuation of dexamethasone for 4 weeks, then normalized (25 μg/dL) after 16 weeks off dexamethasone, and again low (0.4 μg/dL) after 8 weeks on dexamethasone at 7.0-8.0 mg/d.
# [6] = tested on: intracerebral W256 mammary carcinomas; details: rats, even at the study's lowest dose of corticorelin acetate; cited from earlier work
# [7] = tested on: patients with primary or secondary brain tumors (peritumoral brain edema); experiment: Open-label extension study: adverse events and safety
# Protocol: Eligible patients with primary or secondary brain tumors, who had previously participated in one of two randomized, double-blind Phase III trials, were then enrolled in an open-label extension study. As shown in FIG. 1 patients that participated in the Phase III studies that received XERECEPT (corticorelin acetate) 1 mg twice daily and dexamethasone or placebo and dexamethasone or dexamethasone alone were enrolled in the open label extension study. One of the goals of the open label study was to study the maximum dexamethasone reduction in each patient.
# In the open-labeled extension study, patients returned at 4-week intervals and completed assessments that included adverse events, dexamethasone dose, and steroid side-effects. […] Net cumulative change in dexamethasone dose (NCD) for each patient was determined by the change in dexamethasone dose from baseline for each visit. The net sum of these changes accounted for duration, direction, and amount of dexamethasone dose change.
# [8] = tested on: patients with peritumoral brain edema; details: cited from earlier work
# [9] = tested on: vascular leakage of plasma constituents; details: systemic administration; response to injury or inflammatory mediators; cited from earlier work
# RG2 glioma tumor cells = details: rats, cited from earlier work
structure (smiles),measurement,setting,value
CC[C@H](C)[C@H](NC(=O)[C@@H](NC(=O)[C@H](CCC(=O)O)NC(=O)[C@H](CCSC)NC(=O)[C@H](CC(C)C)NC(=O)[C@H](CCCCN)NC(=O)[C@H](CCCNC(=N)N)NC(=O)[C@H](CC(N)=O)NC(=O)[C@H](CO)NC(=O)[C@H](Cc1c[nH]cn1)NC(=O)[C@H](C)NC(=O)[C@H](CCC(N)=O)NC(=O)[C@H](CCC(N)=O)NC(=O)[C@H](C)NC(=O)[C@H](CC(C)C)NC(=O)[C@H](CCC(N)=O)NC(=O)[C@H](CCC(=O)O)NC(=O)[C@H](C)NC(=O)[C@H](CCCNC(=N)N)NC(=O)[C@H](C)NC(=O)[C@H](CCSC)NC(=O)[C@H](CCC(=O)O)NC(=O)[C@H](CC(C)C)NC(=O)[C@@H](NC(=O)[C@H](CCC(=O)O)NC(=O)[C@H](CCCNC(=N)N)NC(=O)[C@H](CC(C)C)NC(=O)[C@H](CC(C)C)NC(=O)[C@H](Cc1c[nH]cn1)NC(=O)[C@H](Cc1ccccc1)NC(=O)[C@@H](NC(=O)[C@H](CC(C)C)NC(=O)[C@H](CC(=O)O)NC(=O)[C@H](CC(C)C)NC(=O)[C@H](CO)NC(=O)[C@@H](NC(=O)[C@@H]1CCCN1C(=O)[C@@H]1CCCN1C(=O)[C@H](CCC(=O)O)NC(=O)[C@H](CCC(=O)O)NC(=O)[C@@H](N)CO)[C@@H](C)CC)[C@@H](C)O)C(C)C)[C@@H](C)CC)C(N)=O [corticorelin acetate],Subjects with improvement or resolution of steroid related conditions,[1],45%
same,Patients with improvement or resolution of steroid-related conditions,"[2]; 8 of the 18 patients with such conditions at baseline, 17 conditions",45%
same,Mean NCD,[2]; 8 patients with improvement or resolution of steroid-related conditions,-9.8 mg/day
same,Median NCD,"[2]; 8 patients with improvement or resolution of steroid-related conditions, range 0 to −36 mg/d",-6.5 mg/day
same,Median time to initial improvement of steroid-related conditions,[2]; range 1 to 36 weeks,12 weeks
same,Improvement observed in Cushingoid appearance,[2]; steroid-related conditions,5 AEs
same,Improvement observed in insomnia,[2]; steroid-related conditions,2 AEs
same,Improvement observed in myopathy,[2]; steroid-related conditions,4 AEs
same,"Improvement observed in weight gain, bloating, pedal edema, polyuria, skin striae, and Herpes zoster rash",[2]; steroid-related conditions,1 AE each
same,Typically refractory patients who successfully reduced dexamethasone,[3]; 5 of the 8 patients 55 years of age,62.5%
same,Typically refractory patients who successfully reduced dexamethasone,[3]; 7 of the 10 patients with recurrent brain tumor,70%
same,Patients with increased NCD,[3]; 7 of the 20 patients,35%
same,Mean NCD,[3]; 7 patients whose NCD was increased,+10.7 mg/d
same,Median NCD,"[3]; 7 patients whose NCD was increased, range +2.0 mg/d to +46.0 mg/d",+5.0 mg/d
same,Median maximum percent change from baseline in dexamethasone dose,"[3]; 7 patients with increased NCD, range +50 to +200%",+100%
same,Typically refractory patients who successfully reduced dexamethasone,[3]; 11 of the 16 patients in whom prior dexamethasone reductions had been unsuccessful,69%
same,Patients with reduced NCD,[3]; 11 of the 20 patients,55%
same,Mean NCD,[3]; 11 patients whose NCD was reduced,-10.7 mg/day
same,Median NCD,"[3]; 11 patients whose NCD was reduced, range −0.5 to −36 mg/d",-3.0 mg/day
same,Median maximum percent change from baseline in dexamethasone dose,"[3]; 11 patients with reduced NCD, range −11 to −100%",−87%
same,Patients discontinuing dexamethasone altogether,[3]; of the 11 patients with reduced NCD,5 patients
same,Exposure to dexamethasone and steroid-related side-effects,[3]; patients with peritumoral brain edema,associated with reduced exposure to dexamethasone and improvement in steroid-related side-effects
same,Patients who took 0.0 mg/d dexamethasone from baseline to ≧24 weeks,[3]; two of 20 patients,10%
same,Subjects who reduced their dexamethasone dosage during the study,[4],11 subjects
same,Subjects who took no concomitant dexamethasone,[4],2 subjects
same,Patients with normal or low serial serum cortisol levels,[5]; 15 of the 16 patients,94%
same,"AM serum cortisol, one patient","[5]; after 8 weeks on dexamethasone at 7.0-8.0 mg/d, low",0.4 µg/dL
same,"AM serum cortisol, one patient","[5]; after 16 weeks off dexamethasone, normalized",25 µg/dL
same,"AM serum cortisol, one patient","[5]; after discontinuation of dexamethasone for 4 weeks, moderately elevated",39 µg/dL
same,Induction of hypercortisolism,[5]; dosing up to 48 weeks,did not induce hypercortisolism
same,Effect on the anti-edematous effect of dexamethasone,[6],enhance substantially the anti-edematous effect of dexamethasone
same,Deaths: relation to study drug,[7]; four patients died between 1-40 days after the last dose,all because of conditions not related to study drug
same,"All adverse events, Mild",[7]; in vivo,3 (15.0) n (%)
same,"All adverse events, Moderate",[7]; in vivo,3 (15.0) n (%)
same,"All adverse events, Severe",[7]; in vivo,1 (5.0) n (%)
same,"All adverse events, all severities (last column, no head)",[7]; in vivo,7 (35.0) n (%)
same,"Eyelid edema, Mild",[7]; in vivo,1 (5.0) n (%)
same,"Eyelid edema, all severities (last column, no head)",[7]; in vivo,1 (5.0) n (%)
same,"Flushing, Mild",[7]; in vivo,3 (15.0) n (%)
same,"Flushing, Moderate",[7]; in vivo,2 (10.0) n (%)
same,"Flushing, all severities (last column, no head)",[7]; in vivo,5 (25.0) n (%)
same,"Headache, Severe",[7]; in vivo,1 (5.0) n (%)
same,"Headache, all severities (last column, no head)",[7]; in vivo,1 (5.0) n (%)
same,"Injection site erythema, Mild",[7]; in vivo,4 (20.0) n (%)
same,"Injection site erythema, Moderate",[7]; in vivo,1 (5.0) n (%)
same,"Injection site erythema, all severities (last column, no head)",[7]; in vivo,5 (25.0) n (%)
same,"Injection site reaction, Mild",[7]; in vivo,2 (10.0) n (%)
same,"Injection site reaction, Moderate",[7]; in vivo,1 (5.0) n (%)
same,"Injection site reaction, all severities (last column, no head)",[7]; in vivo,3 (15.0) n (%)
same,"Nausea, Moderate",[7]; in vivo,1 (5.0) n (%)
same,"Nausea, all severities (last column, no head)",[7]; in vivo,1 (5.0) n (%)
same,Number of SAEs,[7]; in vivo,12 SAEs
same,"Photophobia, Moderate",[7]; in vivo,1 (5.0) n (%)
same,"Photophobia, all severities (last column, no head)",[7]; in vivo,1 (5.0) n (%)
same,SAEs attributed to corticorelin acetate,[7]; in vivo,none of which were attributed to corticorelin acetate
same,Safety and tolerability of long-term treatment,[7]; in vivo,safe and well-tolerated
same,Side-effects of intravenous administration,"[8]; human, in vivo, iv","some side-effects including headache, hypotension, facial flushing, diarrhea, shortness of breath, nausea and lethargy"
same,Tolerability in humans,"[8]; human, in vivo, iv",well-tolerated
same,Neurological symptoms or physical findings,[8]; intravenous bolus and continuous infusions,showed improvement in neurological symptoms or physical findings
same,Effect on vascular leakage and tissue swelling,[9],inhibit vascular leakage of plasma constituents and associated tissue swelling
same,Survival versus dexamethasone alone,RG2 glioma tumor cells; administered chronically,significantly prolonged survival
same,Effect on tumoral and peritumoral edema,RG2 glioma tumor cells; intravenous infusion,reduce tumoral and peritumoral edema
